# Measured values published in patent US7232805B2, “Cobalamin conjugates for anti-tumor therapy” (Inflabloc Pharmaceuticals, Inc., priority 2003, dated 2007).
# How the values were obtained:
# [1] = maximum tolerated dose of the conjugate in nude mice (Example 10); assay type: in vivo, Charles River nude (athymic) mice; settings: 5 consecutive daily intravenous doses, FIG. 10
# Protocol: The following procedure was used to investigate the maximum tolerated dose of the vitamin B12-doxorubicin conjugate in Charles River nude (athymic) mice. Five groups of 5 mice each were weighed and then administered the first of 5 consecutive daily doses of intravenous conjugate; dose levels were 8, 16, 32, 48 and 54 mg/kg/day. Overall toxicity was assessed by weighing the mice twice weekly starting on Day 1 of dosing (the initial dose) and by frequent inspection for clinical signs and symptoms. The NCI definition of the MTD for cancer chemotherapy in mice was adopted for this study. The desirable MTD is that dose of drug mediating a maximum mean body weight loss of ≦10% and no toxic deaths. The upper limit of the MTD is that dose causing a mean 20% weight loss in the group, and one death per 10 animals. After dosing once a day for 5 consecutive days, animals were monitored for another 5 days to address recurrent and latent toxicities.
# [2] = test system: MX-1 human breast carcinoma xenograft; assay: tumor growth delay, MX-1 xenograft, single-cycle dosing (Example 3)
# Protocol: Test articles were administered on the day of pair matching, Day 1.
# The upper limit of acceptability is 20% weight loss.
# [3] = test system: normal murine lymph node cells; assay: CellTiter-Glo Luminescent Cell Viability Assay, normal murine lymph node cells; assay type: cell-based; settings: 96 hours, FIG. 7
# From the text: FIG. 7 is a chart depicting the results of an in vitro assay of the conjugate against normal murine lymph node cells. The assay employed is the CellTiter-Glo™ Luminescent Cell Viability Assay from Promega Corporation, which is recognized in the art as being predictive of the effect of a compound on cell viability. The assay is detailed in Example 8. The method described by Promega Corporation (Technical Bulletin No. 288) was followed with no exceptions.
# Doxorubicin and CobalaRubicin-200 stocks and stock solutions, prepared in 5% DMSO in water, were stored at −20° C. and protected from light. […]
# (§1) After 96 hours, the effects of doxorubicin and B12-S-doxorubicin on cell viability were determined using an assay from Promega. The CellTiter-Glo™ Luminescent Cell Viability Assay quantitates the ATP present in a culture, which correlates with metabolically active cells. Luminescence, which is dependent on ATP concentration, was measured for each individual well on a Wallac MicroBeta® JET Liquid Scintillation and Luminescence Counter. The average luminescence value of the three wells containing medium alone was subtracted from the raw data values to give corrected values. […] The three corrected values for wells dosed with the same concentration of compound were averaged and the standard deviation calculated. Percent cell viability was calculated by considering the untreated cells as 100% viable. […]
# [4] = test system: MX-1 human breast carcinoma xenograft; assay: tumor growth delay, MX-1 xenograft, two-cycle dosing (Example 11)
# Protocol: The following procedure was used to investigate the tumor growth delay effects of the conjugate, particularly for the treatment of MX-1 human breast carcinoma xenograft in athymic mice using a two-cycle dosing regimen. Female nude Harlan mice are implanted subcutaneously with 1 mm^3 MX 1 solid tumor fragments in the flank. During the pre-dose phase of implantation and growth, tumors are initially monitored twice weekly, and then daily as the neoplasms approach the desired size of 80-120 mg. When the majority of tumors reached the targeted weight range (80-120 mg), mice are pair-matched into 5 treatment groups of 10 mice each. For purposes of this illustrationon the effect of 2-cycles of treatment, data from 3 groups are shown: no treatment, 3 mg/kg/day (days 1-5, 21-25) intravenous Doxorubicin and 24 mg/kg/day (days 1-5, 21-25) intravenous bioconjugate. Test article administration began on this day, referred to as Day 1. The tumor growth delay endpoint is reached when the tumor on the mouse reaches 1.5 gm weight estimated by the formula: Tumor weight (mg)=w^2×l/2×1 mg/mm^3, where w=width (mm) and l=length (mm) of the tumor. The median time to endpoint is calculated for each treatment group.
# [5] = systemic toxicity / MTD of free doxorubicin versus conjugate on a molar basis (separate study); assay type: in vivo, mice
# HL-60 cells = assay: CellTiter-Glo Luminescent Cell Viability Assay, HL-60 cells; assay type: cell-based, human; settings: HL-60, 96 hours, 100 μM down to 10 nM, FIG. 6c
# From the text: FIGS. 6a-6d depict the results of in vitro assays of the conjugate against four cell lines. FIG. 6A is a chart depicting the results of the conjugate against MCF-7 cells, cells derived from a human breast cancer cell line. FIG. 6B is a chart depicting the results of the conjugate against SK-BR-3 cells, cells derived from a human breast adenocarcinoma cell line. FIG. 6C is a chart depicting the results of the conjugate against HL-60 cells, cells derived from a human promyelocytic leukemia cell line. FIG. 6D is a chart depicting the results of the conjugate against SK-N-MC cells, cells derived from a human brain neuroblastoma (neuroepithelioma) cell line. […]
# as §1, with “calculated.” for “calculated. Percent cell viability was calculated by considering the untreated cells as 100% viable.”
# [6] = 32 mg/kg/day x 5 days intravenous
# [7] = 32 mg/kg/day x 5 days intravenous, group of 10 mice
# [8] = lower dose than 24 mg/kg/day, data not shown
# [9] = two cycles of 24 mg/kg/day intravenous
# [10] = two cycles of 24 mg/kg/day intravenous, at 71 days
structure (smiles),measurement,setting,value
"COc1cccc2c1C(=O)c1c(O)c3c(c(O)c1C2=O)C[C@@](O)(C(=O)CO)C[C@@H]3O[C@H]1C[C@H](NC(=O)OCc2ccc(NC(=O)[C@H](CCCCN)NC(=O)[C@H](Cc3ccccc3)NC(=O)CCCCCNC(=O)OC[C@H]3O[C@H](n4cnc5cc(C)c(C)cc54)[C@H](O)[C@@H]3OP(=O)(O)O[C@H](C)CNC(=O)CC[C@@]3(C)C4=C(C)C5=NC(=CC6=NC(=C(C)C7=N[C@@](C)([C@H](N4)[C@@H]3CC(N)=O)[C@@](C)(CC(N)=O)[C@@H]7CCC(N)=O)[C@@](C)(CC(N)=O)[C@@H]6CCC(N)=O)C(C)(C)[C@@H]5CCC(N)=O)cc2)[C@H](O)[C@H](C)O1 [conjugate 13, B12-5′-OCONH(CH2)5CO-Phe-Lys-PABC-Dox]","toxicity versus dose, as measured by percent mean body weight loss",[1],clear trend of increasing toxicity with increasing dose
same,MTD,"[1]; mouse, in vivo, percent mean body weight loss, read-out: dose at which the conjugate was well tolerated (MTD study)",≤ 48 mg/kg/day
same,median time to endpoint (tumor 1.5 gm),[2]; [6],62.1 days
same,time to endpoint longer than control,[2]; [6],44.3 days
same,treatment or nontreatment related deaths,[2]; [6],no treatment or nontreatment related deaths
same,maximum body weight loss,"[2]; 32 mg/kg/day x 5 days intravenous, day 9",−8.4%
same,"long-term, tumor-free survivors",[2]; [7],4 mice
same,mice that developed complete regression,[2]; [7],6 mice
same,time to endpoint longer than the Doxorubicin active control,"[2]; 32 mg/kg/day x 5 days intravenous, Doxorubicin 3 mg/kg/day",22.6 days
same,toxicity,"[2]; 64 mg/kg/day x 5 days intravenous, group terminated on Day 4",severe toxicity
same,efficacy compared with the free drug (tumor size versus days),[2]; FIG. 9,much greater efficacy than the free drug
same,change in tumor size,"[2]; at about 2-4 weeks after administration, FIG. 9",substantial decrease in tumor size
same,additional toxicity (body weight) from increased amount of doxorubicin in the conjugate,"[2]; single-cycle study, FIG. 12a, 2.3-fold increase of doxorubicin",not associated with additional toxicity
same,cell viability versus free doxorubicin,[3],as effective as doxorubicin but shows slightly less potency than doxorubicin
same,efficacy versus free doxorubicin on a molar equivalent basis,[4]; [8],less efficacious than free doxorubicin
same,tumor growth versus non-treatment control,[4]; [8],delay in tumor growth was observed
same,time to endpoint longer than control mice,"[4]; two cycles of 24 mg/kg/day (days 1-5, 21-25) intravenous",44 days
same,maximum body weight loss,[4]; [9],10%
same,treatment or nontreatment related deaths,[4]; [9],no treatment or nontreatment related deaths
same,"long-term, tumor-free survivors",[4]; [10],7 of 10
same,mice that developed complete regression,[4]; [10],9 of 10
same,recovery from weight loss versus native doxorubicin,"[4]; two-cycle study, FIG. 12b, equivalent dose of doxorubicin in the conjugate 2-fold greater",tended recover from their weight loss sooner
same,weight loss,"[4]; two-cycle study, doxorubicin 3 mg/kg/day, bioconjugate 24 mg/kg/day",significant weight loss
same,reduction of tumor size and delay of tumor growth,"[4]; two-cycle treatment, study day 71, FIG. 11",extremely effective at reducing tumor size and delaying tumor growth
same,lethality at the same high molar dose,[5]; free doxorubicin at the same high molar dose as the conjugate,not by the doxorubicin conjugate
same,"dose higher than that of free doxorubicin on a molar basis, still with less systemic toxicity",[5]; molar basis,at least 2.3 time
same,cell viability versus free doxorubicin,HL-60 cells,same effectiveness as doxorubicin and is slightly less potent than doxorubicin
